One data set concerns the target PI3Kγ (Homo sapiens (Human), UniProt P48736). Nature of the data set: PI3K gamma isoform inhibition. It is filed as biochemical.
In a further data set the test system is Panc02. Nature of the data set: Orthotopic pancreatic model of spontaneous metastasis. It is filed as in vivo, WT mice. The following applies: 50 mg/kg, three times a week. The method, then:
Panc02 (1×10^6) tumor cells were injected into the pancreas of WT mice (n=18). After 20 days, mice were randomized into two groups. One group was treated with DMSO (control) and the other group was treated with 50 mg/kg of SF2523, three tunes a week. Tumors were removed 35 days after tumor implantation. Values are mean±SEM (n=8 in each gp; P<0.01; pair wise two-sided Student's t test). […] Values are mean±SEM (n=7; P<0.01; pair wise two-sided. Student's t test). The data are representative of three independent experiments performed.

Another data set concerns SKNBE (2) cells. Nature of the data set: Western blot of p-AKT and N-MYC in SKNBE(2) cells. The class given is cell-based, human. The following applies: 24 hrs treatment, IGF stimulated. The method, then: Cells were stimulated with 50 ng/ml IGF for 30 min and used for lysate preparation. Proteins were quantitated by the BCA protein assay (Pierce). Equal amounts of protein were resolved by polyacrylamide gels, transferred to nitrocellulose membrane and probed by Western blot with the following primary antibodies: p-AKT(Ser473), API (Cell Signaling Technologies), N-MYC, CyclinD1 and β-actin (Santa Cruz Biotechnology).
A general note: Immunoblotting shows a protein as a band on a membrane.

The test system of another data set is IMR32 cell line. Nature of the data set: Real-time PCR of N-myc and Cyclin D1 mRNA. The class given is cell-based. The note with it: 5 μM, 24 hrs. The method, then: Cells were stimulated with 50 ng/ml IGF and used for RNA Isolation after 24 hrs of treatment with various inhibitors. The results for N-Myc are shown in FIG. 7A and for Cyclin D1 in FIG. 7B.
The experiment of Example 7 was repeated in the IMR32 cell line (MYCN amplified neuroblastoma cancer cell line).

The next data set addresses BRD4-1 (Homo sapiens (Human), UniProt O60885). Nature of the data set: BRD4 region 1 (BRD4-1) inhibition. It is filed as biochemical.
The target in a further data set is BRD4 (Homo sapiens, UniProt O60885). Nature of the data set: BRD4 inhibition assay (region not distinguished). The class given is biochemical. The note with it: BRD4 regions 1 and 2.
A further data set concerns the target PI3Kβ (Homo sapiens (Human), UniProt P42338). Nature of the data set: PI3K beta isoform inhibition. It is filed as biochemical.
In another data set the test system is NB9464. As to the kind of experiment: NB9464 neuroblastoma tumor growth in nude mice. The following applies: 50 mg/kg, 3 days a week for 1.5 weeks, intra-peritoneal.
The next data set has as its target PI3Kδ (Homo sapiens (Human), UniProt O00329). Nature of the data set: PI3K delta isoform inhibition. It is filed as biochemical. The source says:
Inhibitory activity can be determined routinely using known methods and also front commercial vendors offering this service for kinases and bromodomain proteins. […] In vivo, PI3K inhibition can be determined from target tissue biopsies by standard tissue processing to disrupt cells and then performing Western Blot analysis to determine the presence or absence of pAKT (substrate of PI3K) relative to a control sample. The activity of a compound of the invention as an inhibitor of a bromodomain-containing protein, such as a BET protein, such as BRD2, BRD3, BRD4, and/or BRDT, or an isoform or mutant thereof may be determined in vitro, in vivo, or in a cell line. In vitro assays include assays that determine inhibition of bromodomain-containing proteins. Alternatively, inhibitor binding may be determined by running a competition experiment where a provided compound is incubated with a bromodomain-containing protein, such as a BET protein bound to known ligands, labeled or unlabeled. For example, bromodomain inhibition can be determined in vitro using Alpha Screen Technology (http://www.reactionbiology.com/webapps/site/NewsPDFs/Bromodomain%20Assay%20Platform%20for%20Drug%/20Screening%20and%20Discovery.pdf). In vivo bromodomain inhibition can be determined indirectly by evaluating the amount of protect present of proteins whose genes' transcription is influenced or controlled by the bromodomain protein, for example, the MYCN protein transcription is controlled by BRD4 (J. E. Delmore et al., Cell 2011, 146, 904-917; A. Puissant, Cancer Discov. 2013, 3, 308-323). Bromodomain inhibition may also be predicted by in silico modeling as described below in the Examples.
Several TP Scaffold compounds (structures shown in FIG. 2 and Table 3) were tested for inhibition activity against isoforms of PI3K (alpha, beta, gamma, and delta isoforms) and the bromodomain protein BRD4 at regions 1 (BRD4-1) and 2 (BRD4-2).

The next data set deals with PC3. Nature of the data set: Cellular PI3K inhibitory activity, pAKT Ser473 ELISA. The class given is cell-based. The following applies: Homo sapiens, PC-3; IGF-1 stimulated, pAKT serine 473. On the procedure:
Biological testing of compounds of Formula I. Representative compounds of the invention were tested for cellular PI3K inhibitory activity (as measured by the most robust marker of pathway activity pAKT) in a prostate cancer cell line (PC3), which is summarized in Table 3. […] After this time period the cells were serum starved for 5 hours followed by application of the test compound. Test compound was added as a DMSO (dimethyl sulfoxide) solution such that the final DMSO concentration in the cell media was less than or equal to 0.2% by volume. After 30 minutes of exposure the growth factor stimulant, human IGF-1 (Pepro Tech, Inc., Rocky Hill, N.J., Cat. #100-11), was added in each well. After 30 minutes of IGF-1 exposure, cells were removed the media and cell lysates were prepared using RIPA Lysis buffer (Upstate, Lake Placid, N.Y., Cat. #20-188), keeping on ice. The pAKT serine 473 level was measured in duplicate samples of the cell lysates using commercially available assays such as the Pathscan® Sandwich ELISA kit for Ser473 pAKT (Cell Signaling, Danvers, Mass. Cat. #7160). A SpectraMax Plus spectrophotometric plate reader (Molecular Devices, Sunnydale, Calif.) was used to measure the optical density signal for pAKT at 450 nm (OD450 nm). The pAKT OD450 nm readings were normalized by total protein amount in the cell lysates determined by standard methods.

The test system of data set [1] is MYCN amplified SKNBE(2) cells. As to the kind of experiment: Brd4 chromatin precipitation, quantitative PCR of MYCN promoter region. It is filed as cell-based, human. The note with it: 24 hours exposure. The method, then: MYCN amplified SKNBE(2) cells were exposed to inhibitors for 24 hours then chromatin was precipitated with Brd4 (rabbit polyclonal antibody) along with rabbit IgG as a negative control (IgG). Precipitated chromatin was analyzed for the MYCN gene (2 sites within the MYCN promoter region) by quantitative PCR and enrichment is shown as the percentage of total input DNA (FIG. 4). The negative control region primers amplify within a gene desert region approximately 1 Mb away from MYCN (MYC-N NR). Error bars represent ±SEM of triplicate data. P<0.05 as compared to positive control (paired t-test). Positive control: No inhibitor; IP with BRD4 antibody, Negative Control: No inhibitor, IP with rabbit IgG.

Another data set has as its target BRD4-2 (Homo sapiens (Human), UniProt O60885). Nature of the data set: BRD4 region 2 (BRD4-2) inhibition. The class given is biochemical.
The next data set has as its system B16 melanoma cells. As to the kind of experiment: Mouse model of melanoma metastasis, B16 F10 luciferase cells by tail vein. It is filed as in vivo, WT mice. The note with it: 50 mg/kg every other day, 15 days. The source says: The luciferase signal was monitored every third day by rejecting luciferin, until the lungs were harvested on day 15 (n=5). […] Lungs extracted from these animals are shown below the luciferase imaged pictures supporting the repression of tumor growth in Cmpd 28-treated mice.

Sequence of PI3Kβ (P42338 whole entry, canonical isoform): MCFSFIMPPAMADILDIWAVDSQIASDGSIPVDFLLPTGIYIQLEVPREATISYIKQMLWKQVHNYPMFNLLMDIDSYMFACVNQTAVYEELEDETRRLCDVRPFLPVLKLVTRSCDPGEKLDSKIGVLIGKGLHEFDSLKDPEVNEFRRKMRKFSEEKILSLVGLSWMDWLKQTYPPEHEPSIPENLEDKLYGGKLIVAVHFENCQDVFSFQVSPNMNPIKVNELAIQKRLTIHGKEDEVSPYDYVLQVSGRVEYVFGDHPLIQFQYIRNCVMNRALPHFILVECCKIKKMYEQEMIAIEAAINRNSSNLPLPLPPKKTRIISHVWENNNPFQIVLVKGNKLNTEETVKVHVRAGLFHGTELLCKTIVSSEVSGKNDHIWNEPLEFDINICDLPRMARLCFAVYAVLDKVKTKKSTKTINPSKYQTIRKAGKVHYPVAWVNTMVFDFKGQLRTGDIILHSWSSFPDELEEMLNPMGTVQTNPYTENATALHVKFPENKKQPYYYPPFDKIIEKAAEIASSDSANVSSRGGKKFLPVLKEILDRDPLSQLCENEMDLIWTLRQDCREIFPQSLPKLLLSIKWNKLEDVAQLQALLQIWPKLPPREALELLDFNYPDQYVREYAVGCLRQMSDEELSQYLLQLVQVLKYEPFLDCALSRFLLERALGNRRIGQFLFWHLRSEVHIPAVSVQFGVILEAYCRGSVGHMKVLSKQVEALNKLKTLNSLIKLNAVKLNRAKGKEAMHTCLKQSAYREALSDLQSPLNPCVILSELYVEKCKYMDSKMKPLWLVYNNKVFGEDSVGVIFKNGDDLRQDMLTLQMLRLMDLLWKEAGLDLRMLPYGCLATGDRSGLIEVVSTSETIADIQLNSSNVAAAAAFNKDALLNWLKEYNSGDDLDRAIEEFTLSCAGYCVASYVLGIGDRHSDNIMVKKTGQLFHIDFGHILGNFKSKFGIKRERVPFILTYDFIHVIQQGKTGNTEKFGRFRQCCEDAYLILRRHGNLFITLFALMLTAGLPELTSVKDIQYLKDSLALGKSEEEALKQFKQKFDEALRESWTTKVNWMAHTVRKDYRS
Sequence of PI3Kβ (P27986 whole entry partner, canonical isoform): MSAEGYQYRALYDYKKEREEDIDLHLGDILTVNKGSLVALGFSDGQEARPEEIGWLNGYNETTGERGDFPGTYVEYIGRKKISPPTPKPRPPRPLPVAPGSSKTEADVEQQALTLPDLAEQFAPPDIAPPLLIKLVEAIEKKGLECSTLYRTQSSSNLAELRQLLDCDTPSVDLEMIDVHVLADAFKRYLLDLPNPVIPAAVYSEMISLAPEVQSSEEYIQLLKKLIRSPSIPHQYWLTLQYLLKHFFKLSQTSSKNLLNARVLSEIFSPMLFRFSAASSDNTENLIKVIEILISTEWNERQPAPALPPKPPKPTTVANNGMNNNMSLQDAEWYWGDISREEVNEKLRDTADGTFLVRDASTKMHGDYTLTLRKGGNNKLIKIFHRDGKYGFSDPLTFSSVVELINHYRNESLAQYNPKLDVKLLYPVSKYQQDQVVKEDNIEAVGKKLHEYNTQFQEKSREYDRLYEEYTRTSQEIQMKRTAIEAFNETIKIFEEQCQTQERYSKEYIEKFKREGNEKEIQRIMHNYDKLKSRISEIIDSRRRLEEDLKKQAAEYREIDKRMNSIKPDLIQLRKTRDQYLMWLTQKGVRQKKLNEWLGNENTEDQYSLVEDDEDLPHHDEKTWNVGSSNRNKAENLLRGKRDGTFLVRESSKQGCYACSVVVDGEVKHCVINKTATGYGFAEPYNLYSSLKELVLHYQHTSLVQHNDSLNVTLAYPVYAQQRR
Sequence of PI3Kγ (P48736 whole entry, canonical isoform): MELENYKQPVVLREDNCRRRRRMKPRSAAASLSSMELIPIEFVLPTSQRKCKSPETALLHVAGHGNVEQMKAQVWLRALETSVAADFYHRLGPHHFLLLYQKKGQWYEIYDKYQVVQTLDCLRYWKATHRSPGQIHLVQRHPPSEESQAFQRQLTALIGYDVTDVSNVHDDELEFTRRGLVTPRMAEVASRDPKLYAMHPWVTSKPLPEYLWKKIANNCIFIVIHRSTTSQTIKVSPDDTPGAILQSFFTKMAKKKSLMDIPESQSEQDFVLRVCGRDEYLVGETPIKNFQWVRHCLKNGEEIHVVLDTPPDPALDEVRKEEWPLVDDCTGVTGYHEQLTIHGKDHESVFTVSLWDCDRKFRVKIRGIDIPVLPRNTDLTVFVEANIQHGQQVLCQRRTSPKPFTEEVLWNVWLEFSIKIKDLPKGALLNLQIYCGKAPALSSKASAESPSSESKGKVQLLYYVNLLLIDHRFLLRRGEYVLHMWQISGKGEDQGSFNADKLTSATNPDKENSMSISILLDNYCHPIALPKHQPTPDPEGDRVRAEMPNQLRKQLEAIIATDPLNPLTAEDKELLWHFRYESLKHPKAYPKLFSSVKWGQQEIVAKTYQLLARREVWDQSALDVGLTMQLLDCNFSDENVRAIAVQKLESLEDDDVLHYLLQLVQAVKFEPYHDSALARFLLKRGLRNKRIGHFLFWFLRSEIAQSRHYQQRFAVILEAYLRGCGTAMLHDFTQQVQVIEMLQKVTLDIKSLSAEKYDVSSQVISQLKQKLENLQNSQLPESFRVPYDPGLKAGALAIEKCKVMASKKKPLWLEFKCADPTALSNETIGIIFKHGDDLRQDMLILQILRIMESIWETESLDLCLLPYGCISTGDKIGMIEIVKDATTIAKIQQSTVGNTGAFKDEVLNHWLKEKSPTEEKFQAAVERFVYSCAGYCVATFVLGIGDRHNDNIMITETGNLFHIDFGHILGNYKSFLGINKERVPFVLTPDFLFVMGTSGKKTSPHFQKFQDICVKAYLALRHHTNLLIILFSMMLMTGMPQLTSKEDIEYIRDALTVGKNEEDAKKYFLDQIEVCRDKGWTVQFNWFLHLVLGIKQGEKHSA
Sequence of PI3Kδ (O00329 whole entry, canonical isoform): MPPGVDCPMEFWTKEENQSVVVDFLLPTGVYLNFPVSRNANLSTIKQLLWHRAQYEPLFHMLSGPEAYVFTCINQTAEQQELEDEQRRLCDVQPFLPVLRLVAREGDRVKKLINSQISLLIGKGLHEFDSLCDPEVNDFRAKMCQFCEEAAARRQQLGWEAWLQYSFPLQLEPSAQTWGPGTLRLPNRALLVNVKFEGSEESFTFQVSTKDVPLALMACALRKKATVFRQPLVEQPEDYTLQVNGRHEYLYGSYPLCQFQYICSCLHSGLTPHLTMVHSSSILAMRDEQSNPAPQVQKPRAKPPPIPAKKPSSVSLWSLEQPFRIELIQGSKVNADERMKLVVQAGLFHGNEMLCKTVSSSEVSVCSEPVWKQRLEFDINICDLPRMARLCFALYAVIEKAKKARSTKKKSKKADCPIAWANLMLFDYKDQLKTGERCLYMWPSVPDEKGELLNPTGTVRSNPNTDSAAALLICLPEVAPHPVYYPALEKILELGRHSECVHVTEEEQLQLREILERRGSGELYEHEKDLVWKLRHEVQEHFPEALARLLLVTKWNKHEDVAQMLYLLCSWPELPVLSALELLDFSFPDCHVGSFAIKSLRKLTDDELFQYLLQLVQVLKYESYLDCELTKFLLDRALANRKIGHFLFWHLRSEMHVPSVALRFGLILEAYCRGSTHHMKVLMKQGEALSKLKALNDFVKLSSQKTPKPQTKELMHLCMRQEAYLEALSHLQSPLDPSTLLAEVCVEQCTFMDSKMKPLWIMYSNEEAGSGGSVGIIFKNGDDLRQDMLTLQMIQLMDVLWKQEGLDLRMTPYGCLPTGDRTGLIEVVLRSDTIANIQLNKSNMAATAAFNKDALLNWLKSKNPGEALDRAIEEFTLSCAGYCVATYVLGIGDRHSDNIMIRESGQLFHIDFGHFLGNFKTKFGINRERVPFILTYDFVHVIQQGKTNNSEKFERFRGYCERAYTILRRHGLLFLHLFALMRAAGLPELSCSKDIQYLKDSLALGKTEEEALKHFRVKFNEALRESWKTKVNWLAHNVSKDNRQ
Sequence of PI3Kδ (P27986 whole entry partner, canonical isoform): as the sequence (P27986 whole entry partner, canonical isoform) above
Source text for NB9464: MYCN-overexpressing murine neuroblastoma cells (NB9464) were transplanted into nude mice, grown lot 24 days and randomized into two groups.

Consider `O=c1cc(N2CCOCC2)oc2c(-c3ccc4c(c3)OCCO4)csc12` [Cmpd 28], for which the IC50 at PI3Kγ is 0.158 µM; against BRD4-1 it was 0.241 µM; against PI3Kβ, 0.214 µM; against PI3Kδ, 0.96 µM; with PC3, 0.161 to 0.44 µM; against BRD4-2, 1.55 µM. In the data set with Panc02, the spontaneous metastasis entry is recorded as “blocks spontaneous metastasis”. Besides, the “MYCN protein quantity, Western blot” value with SKNBE (2) cells was “decreased”. Moreover, the “pAKT, Western blot” value with SKNBE (2) cells was “decreased”. Further, the “Cyclin D1 mRNA expression” value in the data set with IMR32 cell line is reported as “reducing mRNA expression”. In the data set on IMR32 cell line, the “MYCN mRNA expression” value was “inhibits MYCN expression”. In addition, the “BRD4 inhibition” value at BRD4 was “showed activity”. Moreover, the “tolerability / body weight” value with NB9464 is given as “well tolerated (no body weight loss”. Also, the “tumor growth compared to vehicle” value with NB9464 is recorded as “significantly blocked tumor growth”. Also, in data set [1], the “MYCN expression (Brd4 ChIP, MYCN promoter)” value is recorded as “significantly repressed MYCN expression”. In addition, in the data set with B16 melanoma cells, the “luciferase bioimaging of cancer cells” value is given as “little evidence of the presence of cancer cells”. Further, in the data set on B16 melanoma cells, the “reduction in metastatic nodules” value was determined as 60%.

Usually IC50 stands for the concentration that inhibits the measured activity by half. A high value points to weaker potency in that assay.

Source of the values: patent US9505780B2, “Thienopyranones as kinase and epigenetic inhibitors” (SignalRx Pharmaceuticals, Inc., priority 2014, dated 2016).
